Measurements taken from BindingDB's records for patent US9242996 (Novartis, 2016).

Molecular target: Mitogen-activated protein kinase 1 (Homo sapiens, UniProt P28482)
Assay: Kinase Assay (New)
Conditions: pH 7.5
Description: Compound dilution series are prepared in 100% DMSO. ERK2 is preincubated with compounds for 30 minutes at ambient temperature. Reaction is initiated by addition of a substrate cocktail of ERKtide peptide and ATP and is allowed to proceed for 2-3 hours at ambient temperature. […] Terminated reactions are read, after overnight incubation in the dark, on an EnVision Multilabel Plate Reader (PerkinElmer, Waltham, Mass.), with excitation and emission wavelengths set to 680 nm and 570 nm, respectively. IC50 values are determined using a four-parameter fit.

Sequence of Mitogen-activated protein kinase 1 (P28482 whole entry): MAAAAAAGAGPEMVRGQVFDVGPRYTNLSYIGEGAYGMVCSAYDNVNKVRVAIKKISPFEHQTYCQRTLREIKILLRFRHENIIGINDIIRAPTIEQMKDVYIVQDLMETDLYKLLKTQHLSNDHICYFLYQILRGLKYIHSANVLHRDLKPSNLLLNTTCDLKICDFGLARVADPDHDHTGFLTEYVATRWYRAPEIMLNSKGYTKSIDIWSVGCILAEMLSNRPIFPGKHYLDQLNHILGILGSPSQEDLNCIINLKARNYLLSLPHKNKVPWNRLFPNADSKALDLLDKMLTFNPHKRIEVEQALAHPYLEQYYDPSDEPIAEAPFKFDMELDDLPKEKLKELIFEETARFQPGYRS

IC50: 7.33 nM
SMILES: Cc1nn(C)cc1-c1cnc(N)c(-c2ccc(C(=O)NCc3cccc(S(C)(=O)=O)c3)c(F)c2)n1 [US9242996, 145]
